Results as given in patent publication US12495798B2, “Nicotinamide compound and herbicidal composition comprising compound” (KOREA RESEARCH INSTITUTE OF CHEMICAL TECHNOLOGY, priority 2019, dated 2025).

Tests used:
Type in all cases: in vivo
crabgrass [1] = experiment: Herbicidal activity test against upland field weeds (foliar treatment test); set-up: key to Foliar treatment herbicidal activity, Crabgrass: 0 (no control); 100 (complete control); conditions: 50 g ai/ha, scale 0-100; for pest or weed control at 50 g/ha: Digitaria sanguinalis
In short: (§1)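 Visual 0–100 control ratings relative to untreated plants, taken 14 (or 21) days after spraying foliage at 50 or 75 g a.i./ha. Spray solution: 50% acetone with 0.1% Tween-20; plants kept in greenhouse at 30±5 °C, 14 h light/10 h dark.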

sorghum [2] = experiment: Herbicidal activity test against upland field weeds (soil treatment test); set-up: key to Soil treatment herbicidal activity, Sorghum: 0 (no control); 100 (complete control); conditions: 50 g ai/ha, scale 0 (no control) to 100 (complete control)
Description: (§2) Experimental Example 2: Herbicidal Activity Test Against Upland Field Weeds (Soil Treatment Test) Soil treatment was performed as follows: After filling a square plastic pot having a surface area of 350 cm^2 with sandy loam mixed with 1 g per pot (350 cm^2) of horticultural mixed fertilizer (N:P:K=11:10:11), seeds (10˜15 grains) or rootstocks (2 pieces) of 5 kinds of grassy weeds of sorghum, barnyard grass, quack grass, crabgrass, fall panicum, and 5 kinds of broadleaf weeds of black nightshade, indian jointvetch, velvetleaf, cocklebur, bindweed, which had been stored in a low temperature (6° C.), were sown. The day after sowing, test compound solutions were made by diluting with a preparation solution (including 50% acetone, 0.1% Tween-20) so that the final treatment amount of the test compounds was 50 or 75 g a.i./ha. The prepared test compound solution was used for treating soil surface by hand-spraying 14 mL per pot in a fume hood. After the treatment, it was managed under the same greenhouse conditions (average temperature 30±5° C., light/dark=14/10 hours), and after 14 days (after 21 days if necessary), the external symptoms and efficacy were investigated according to the scale of 0 (no control) to 100 (complete control). The results of Table 8 were obtained by evaluating weed control value to the untreated control by conducting visual assessment.

black nightshade [3] = experiment: as above; set-up: key to Soil treatment herbicidal activity, black nightshade: 0 (no control); 100 (complete control); conditions: 50 g ai/ha, scale 0 (no control) to 100 (complete control)
Description: as §2

bindweed [4] = experiment: as above; set-up: key to Soil treatment herbicidal activity, Bindweed: 0 (no control); 100 (complete control); conditions: 50 g ai/ha, scale 0 (no control) to 100 (complete control)
Description: as §2

indian jointvetch [5] = experiment: Herbicidal activity test against upland field weeds (foliar treatment test); set-up: key to Foliar treatment herbicidal activity, Indian jointvetch: 0 (no control); 100 (complete control); conditions: 50 g ai/ha, scale 0-100
In short: as §1

cocklebur = experiment: as above; set-up: key to Foliar treatment herbicidal activity, Cocklebur: 0 (no control); 100 (complete control); conditions: 50 g ai/ha, scale 0-100; for pest or weed control at 50 g/ha: Xanthium strumarium
In short: as §1

crabgrass [6] = experiment: Herbicidal activity test against upland field weeds (soil treatment test); set-up: key to Soil treatment herbicidal activity, Crabgrass: 0 (no control); 100 (complete control); conditions: 50 g ai/ha, scale 0 (no control) to 100 (complete control); for pest or weed control at 50 g/ha: Digitaria sanguinalis
Description: as §2

bindweed [7] = experiment: Herbicidal activity test against upland field weeds (foliar treatment test); set-up: key to Foliar treatment herbicidal activity, Bindweed: 0 (no control); 100 (complete control); conditions: 50 g ai/ha, scale 0-100
In short: as §1

black nightshade [8] = experiment: as above; set-up: key to Foliar treatment herbicidal activity, black nightshade: 0 (no control); 100 (complete control); conditions: 50 g ai/ha, scale 0-100; for pest or weed control at 50 g/ha: Solanum nigrum
In short: as §1

fall panicum [9] = experiment: Herbicidal activity test against upland field weeds (soil treatment test); set-up: key to Soil treatment herbicidal activity, Fall panicum: 0 (no control); 100 (complete control); conditions: 50 g ai/ha, scale 0 (no control) to 100 (complete control)
Description: as §2

barnyard grass [10] = experiment: Herbicidal activity test against upland field weeds (foliar treatment test); set-up: key to Foliar treatment herbicidal activity, barnyard grass: 0 (no control); 100 (complete control); conditions: 50 g ai/ha, scale 0-100; for pest or weed control at 50 g/ha: Echinochloa crus-galli
In short: as §1

quack grass [11] = experiment: Herbicidal activity test against upland field weeds (soil treatment test); set-up: key to Soil treatment herbicidal activity, quack grass: 0 (no control); 100 (complete control); conditions: 50 g ai/ha, scale 0 (no control) to 100 (complete control)
Description: as §2

barnyard grass [12] = experiment: as above; set-up: key to Soil treatment herbicidal activity, barnyard grass: 0 (no control); 100 (complete control); conditions: 50 g ai/ha, scale 0 (no control) to 100 (complete control)
Description: as §2

velvetleaf [13] = experiment: as above; set-up: key to Soil treatment herbicidal activity, velvet leaf: 0 (no control); 100 (complete control); conditions: 50 g ai/ha, scale 0 (no control) to 100 (complete control)
Description: as §2

sorghum [14] = experiment: Herbicidal activity test against upland field weeds (foliar treatment test); set-up: key to Foliar treatment herbicidal activity, Sorghum: 0 (no control); 100 (complete control); conditions: 50 g ai/ha, scale 0-100; for plant injury at 50 g/ha: Sorghum
In short: as §1

indian jointvetch [15] = experiment: Herbicidal activity test against upland field weeds (soil treatment test); set-up: key to Soil treatment herbicidal activity, Indian jointvetch: 0 (no control); 100 (complete control); conditions: 50 g ai/ha, scale 0 (no control) to 100 (complete control)
Description: as §2

fall panicum [16] = experiment: Herbicidal activity test against upland field weeds (foliar treatment test); set-up: key to Foliar treatment herbicidal activity, Fall panicum: 0 (no control); 100 (complete control); conditions: 50 g ai/ha, scale 0-100; for pest or weed control at 50 g/ha: Panicum dichotomiflorum
In short: as §1

velvetleaf [17] = experiment: as above; set-up: key to Foliar treatment herbicidal activity, velvet leaf: 0 (no control); 100 (complete control); conditions: 50 g ai/ha; for pest or weed control at 50 g/ha: Abutilon theophrasti, scale 0-100, read-out: Foliar treatment herbicidal activity, velvet leaf; for Foliar treatment herbicidal activity, velvet leaf: scale 0-100
In short: as §1

quack grass [18] = experiment: as above; set-up: key to Foliar treatment herbicidal activity, quack grass: 0 (no control); 100 (complete control); conditions: 50 g ai/ha, scale 0-100
In short: as §1

| Structure (SMILES) | Foliar treatment herbicidal activity, Crabgrass (crabgrass [1]) | Soil treatment herbicidal activity, Sorghum (sorghum [2]) | Soil treatment herbicidal activity, black nightshade (black nightshade [3]) | pest or weed control at 50 g/ha (bindweed [4]) | pest or weed control at 50 g/ha (indian jointvetch [5]) | pest or weed control at 50 g/ha (cocklebur) | pest or weed control at 50 g/ha (bindweed [7]) | pest or weed control at 50 g/ha (black nightshade [8]) | Soil treatment herbicidal activity, Fall panicum (fall panicum [9]) | Foliar treatment herbicidal activity, barnyard grass (barnyard grass [10]) | Soil treatment herbicidal activity, quack grass (quack grass [11]) | Soil treatment herbicidal activity, barnyard grass (barnyard grass [12]) | Soil treatment herbicidal activity, velvet leaf (velvetleaf [13]) | Foliar treatment herbicidal activity, Sorghum (sorghum [14]) | Soil treatment herbicidal activity, Indian jointvetch (indian jointvetch [15]) | Foliar treatment herbicidal activity, Fall panicum (fall panicum [16]) | pest or weed control at 50 g/ha (velvetleaf [17]) | Foliar treatment herbicidal activity, Indian jointvetch (indian jointvetch [5]) | Soil treatment herbicidal activity, Crabgrass (crabgrass [6]) | Foliar treatment herbicidal activity, quack grass (quack grass [18]) | other results |
| --- | --- | --- | --- | --- | --- | --- | --- | --- | --- | --- | --- | --- | --- | --- | --- | --- | --- | --- | --- | --- | --- |
| CN(C(=O)c1ccc(C(F)(F)F)nc1OCc1nnnn1C(F)F)c1nnnn1C [Compound No. 1-8, 2-((1-(difluoromethyl)-1H-tetrazol-5-yl)methoxy)-N-methyl-N-(1-methyl-1H-tetrazol-5-yl)-6-(trifluoromethyl)nicotinamide] | 0 | 0 | 0 | 50% | 70% | 20% | 40% | 98% | 0 | 0 | 0 | 0 | 100 | 0 | 100 | 0 | 20% |  |  |  | pest or weed control at 50 g/ha (crabgrass [6]): 30% |
| CN(Cc1nnnn1C)c1nc(C(F)(F)F)ccc1C(=O)Nc1nnnn1C [Compound No. 1-27, 2-(methyl((1-methyl-1H-tetrazol-5-yl)methyl)amino)-N-(1-methyl-1H-tetrazol-5-yl)-6-(trifluoromethyl)nicotinamide] | 100 | 100 | 100 | 80% |  |  |  |  | 100 | 100 |  | 100 | 100 |  | 100 |  |  | 100 | 100 |  | pest or weed control at 50 g/ha (quack grass [18]): 30%; Foliar treatment herbicidal activity, Cocklebur (cocklebur): 100; Foliar treatment herbicidal activity, Bindweed (bindweed [7]): 100; pest or weed control at 50 g/ha (quack grass [11]): 20%; plant injury at 50 g/ha (sorghum [14]): 80%; pest or weed control at 50 g/ha (fall panicum [16]): 80%; Foliar treatment herbicidal activity, velvet leaf (velvetleaf [17]): 100 |
| Cn1cnc(COCc2nc(C(F)(F)C(F)(F)F)ccc2C(=O)Nc2nnnn2C)n1 [Compound No. 2-83, 2-(((1-methyl-1H-1,2,4-triazol-3-yl)methoxy)methyl)-N-(1-methyl-1H-tetrazol-5-yl)-6-(perfluoroethyl)nicotinamide] |  | 0 | 100 | 40% | 70% | 60% | 40% | 98% |  |  | 0 | 0 | 100 |  |  |  | 70% |  |  | 0 | pest or weed control at 50 g/ha (crabgrass [1]): 70%; pest or weed control at 50 g/ha (crabgrass [6]): 70%; pest or weed control at 50 g/ha (fall panicum [9]; Panicum dichotomiflorum): 60%; pest or weed control at 50 g/ha (barnyard grass [10]): 90%; plant injury at 50 g/ha (sorghum [14]): 20%; pest or weed control at 50 g/ha (indian jointvetch [15]): 80%; pest or weed control at 50 g/ha (fall panicum [16]): 70% |
| Cn1cnc(COc2nc(C(F)(F)F)ccc2C(=O)Nc2nnnn2C)n1 [Compound No. 2-43, 2-((1-methyl-1H-1,2,4-triazol-3-yl)methoxy)-N-(1-methyl-1H-tetrazol-5-yl)-6-(trifluoromethyl)nicotinamide] |  | 0 |  |  | 20% | 20% | 30% | 95% | 0 |  | 0 | 0 |  |  |  |  | 40% |  | 0 | 0 | pest or weed control at 50 g/ha (crabgrass [1]): 30%; Soil treatment herbicidal activity, Bindweed (bindweed [4]): 0; pest or weed control at 50 g/ha (barnyard grass [10]): 60%; pest or weed control at 50 g/ha (velvetleaf [13]; Abutilon theophrasti, read-out: Soil treatment herbicidal activity, velvet leaf): 30%; plant injury at 50 g/ha (sorghum [14]): 20%; pest or weed control at 50 g/ha (indian jointvetch [15]): 20%; pest or weed control at 50 g/ha (fall panicum [16]): 50% |
| CCOC(=O)OC(C)N(C(=S)c1ccc(C(F)(F)F)nc1CSCc1nnn(C)n1)c1nnnn1C (centres unmarked) [Compound No. 4-9, ethyl (1-(N-(1-methyl-1H-tetrazol-5-yl)-2-((((2-methyl-2H-tetrazol-5-yl)methyl)thio)methyl)-6-(trifluoromethyl)pyridin-3-carbothioamido)ethyl)carbonate] | 98 | 0 | 100 |  |  |  |  |  | 0 | 100 | 0 | 0 | 100 | 70 | 100 | 90 |  | 98 | 0 | 0 | Foliar treatment herbicidal activity, Cocklebur (cocklebur): 100; Foliar treatment herbicidal activity, Bindweed (bindweed [7]): 100; Foliar treatment herbicidal activity, black nightshade (black nightshade [8]): 98; Foliar treatment herbicidal activity, velvet leaf (velvetleaf [17]): 98 |
| CC(C)OC(=O)OC(C)N(C(=O)c1ccc(C(F)(F)F)nc1COCc1nnn(C)n1)c1nnnn1C (centres unmarked) [Compound No. 4-12, isopropyl(1-(N-(1-methyl-1H-tetrazol-5-yl)-2-(((2-methyl-2H-tetrazol-5-yl)methoxy)methyl)-6-(trifluoromethyl)nicotinamido)ethyl)carbonate] | 95 | 20 | 100 |  |  |  |  |  | 90 | 100 | 0 | 100 | 100 | 70 | 40 | 98 |  | 98 | 100 | 0 | Soil treatment herbicidal activity, Bindweed (bindweed [4]): 98; Foliar treatment herbicidal activity, Cocklebur (cocklebur): 98; Foliar treatment herbicidal activity, Bindweed (bindweed [7]): 100; Foliar treatment herbicidal activity, black nightshade (black nightshade [8]): 100; Foliar treatment herbicidal activity, velvet leaf (velvetleaf [17]): 100 |
